{
  "source": "patent US4829051A",
  "about": "“N-substituted derivatives of 1-desaminovasopressin” (Vega Laboratories, Inc., priority 1984, dated 1989)",
  "origin": "cited, not measured here",
  "conditions": "in vivo",
  "data": [
    {"smiles": "NC(=O)CC[C@@H]1NC(=O)[C@H](Cc2ccccc2)NC(=O)[C@H](Cc2ccc(O)cc2)NC(=O)CCSSC[C@@H](C(=O)N2CCC[C@H]2C(=O)N[C@H](CCCN=C(N)N)C(=O)NCC(N)=O)NC(=O)[C@H](CC(N)=O)NC1=O", "note": "[desmopressin]", "values": [
      {"measurement": "Antidiuretic activity", "value": "enhanced and prolonged antidiuretic activity"},
      {"measurement": "Pressor activity", "value": "low pressor activity"}
    ]}
  ]
}
